Assay results published in patent US20250325793A1, “INTRACALVARIOSSEOUS DRUG ADMINISTRATION DEVICE FOR DELIVERING DRUG BY BYPASSING BLOOD-BRAIN BARRIER” (GACHON UNIVERSITY OF INDUSTRY-ACADEMIC COOPERATION …, priority 2023, published 2025).
Where a name gives a salt, the structure may show the parent alone.

How the values were obtained:
[1] = Plasma, brain interstitial fluid (microdialysis) and whole-brain drug levels after intravenous (IV) and intracalvariosseous (ICO) administration; type: in vivo, rat; conditions: for brain-to-plasma ratio (Kp), ICO administration group relative to IV administration group: at 24 hours after administration; for brain-to-plasma ratio (Kp), ICO administration group relative to IV administration group / Cbr (brain drug concentration), ICO administration group relative to IV administration group: fold higher in ICO (5 mg/kg) than IV (0.5 mg/kg); for AUCISF of the ICO administration group compared with the IV administration group: brain interstitial fluid (microdialysis, right hippocampus); for AUCplasma of the ICO administration group compared with the IV administration group: rat plasma; for Cbr (brain drug concentration), ICO administration group relative to IV administration group: whole brain at 24 hours after administration
Description: The experiment was performed with 5-week-old male rats weighing […]. To ensure statistical independence, only male rats were used in each experiment.
Eight rats were randomly assigned to the IV and ICO administration groups for each compound and were administered continuously from the next day (n=4).
In order to perform the experiment, the drug administration device of the present disclosure should be installed on the rats in the ICO administration group, and a guide cannula for a microdialysis probe for measuring the concentration of drugs in the brain should be installed on the rats in both the ICO administration group and the IV administration group.
As illustrated in FIG. 9 and FIG. 10, the drug administration device was installed on the left side of the skull of the rats in the ICO administration group, and the guide cannula was installed on the right side, while only the guide cannula was implanted in the skull of the IV administration group.
Then, in order to implant the microdialysis guide cannula, the rats in the ICO and IV administration groups were anesthetized with isoflurane, and a small hole was drilled in the skull, and the guide cannula was inserted into the right hippocampus (see FIGS. 9 and 10). The inserted guide cannula was fixed with dental cement, and the skin wound was sutured, and then the rats were allowed to recover from the surgery in the cage for one day.
Before the drug administration, the membrane of the microdialysis probe was soaked in ethanol and artificial cerebrospinal fluid (aCSF) buffer was perfused through the microdialysis probe at a flow rate of 0.5 μl/min for 1 hour for stabilization.
In addition, the ICO administration group was administered at a dose of 5 mg/kg by filling the drug into the receiving portion 100 of the drug administration device.
The perfusate of the microdialysis probe was collected every 30 minutes for […] between 8 and 24 hours after administration.
The dialysate samples were stored at […] until the time of LC-MS/MS analysis (tandem mass spectrometry).
Blood samples were immediately centrifuged at 10,000 rpm for 10 minutes at 4° C. to recover plasma. In the case of TMZ, blood samples collected after administration were immediately centrifuged and then 10 μl of plasma was acidified with 2 μl of 0.1% formic acid.
Brains were excised 24 hours after administration, and PBS (phosphate buffer saline) corresponding to the weight of each tissue sample was added, followed by homogenization using a homogenizer.
Plasma and homogenized brain tissue samples were stored at […] until LC-MS/MS analysis.
The areas under the curve in plasma (AUCplasma) and interstitial fluid (ISF) concentration-time curves (AUCISF) were determined by noncompartmental analysis using WinNonlin 2.1. Brain concentration (Cbr) in the whole brain at 24 hours was corrected for the plasma volume of the corresponding organ using the Expression below, which was determined using LC-MS/MS.
In the above Expression, Cbr, quant, 24 h is the brain drug concentration (ng/g) at 24 hours quantified by LC-MS/MS, V0 is the plasma volume of the corresponding organ (μl/g), Cplasma, 24 h at 24 hours is the plasma concentration (ng/ml), and the V0 value for the brain was selected as 9.3±1.1 μl/g.
Compared to IV administration, the extent of brain uptake after ICO administration was expressed as brain availability (Fbr), which is similar to systemic bioavailability (F), and was calculated as the ratio of AUCISF, IV and AUCISF, ICO using the Expression below.
In the above Expression, AUCISF,ICO and AUCISF,IV are the areas under the curves in the brain interstitial fluid-time plot (AUCISF) up to 24 hours after ICO administration and IV administration, respectively.

[2] = Near-infrared (NIR) fluorescence imaging of ICG diffusion in the skull after administration through the installed device; type: in vivo, rat; conditions: 24 hours after 50 μl of ICG (500 μg/ml in saline), NIR fluorescence image
Description: Next, the integrity of the drug administration device installed in the skull of the rat was tested by near-infrared (NIR) fluorescence imaging using indocyanine green (IGC).
The diffusion of ICG into the rat skull was observed by the near-infrared fluorescence imaging of the drug administration device installed in the thinned rat skull.
50 μl of ICG (500 μg/ml in saline) was administered to the rat with the drug administration device installed. After 24 hours, the rat was anesthetized, placed in a stereotaxic position, and the scalp was cut. For the ICG-NIR fluorescence imaging, a 780 nm laser with 150 mW output was set at a distance of 80 mm and an angle of 20° from the target through a C-clamp on a Z stand for a laser spot size of 15 mm width and 25 mm length, and fluorescence images were recorded at 1 frame per second using basedcam2 software while NIR light was administered through the 780 nm laser.

[3] = up to 24 h, ICO 5 mg/kg vs IV 0.5 mg/kg

Compound	brain-to-plasma ratio (Kp), ICO administration group relative to IV administration group [1] [times]	AUCISF of the ICO administration group compared with the IV administration group [1, 3]	AUCplasma of the ICO administration group compared with the IV administration group [1, 3]	Cbr (brain drug concentration), ICO administration group relative to IV administration group [1] [times]	ICG signal in the left skull where the drug administration device was installed [2]	ICG signal in the right skull [2]	AUCISF after ICO administration ([1]; ICO 5 mg/kg, brain interstitial fluid, up to 24 h) [ng/min/mL]	ISF concentration after IV administration ([1]; IV 0.5 mg/kg, all time points, brain interstitial fluid)	AUC ratio (%, AUCISF/AUCplasma), ICO administration group relative to IV administration group ([1]; fold higher in ICO than IV group, ICO 5 mg/kg vs IV 0.5 mg/kg) [times]
CN(C)CCCN1c2ccccc2Sc2ccc(Cl)cc21 [CPZ, Chlorpromazine hydrochloride]	35.3	no different	relatively lower	85.1					
[2H]C([2H])(N)C([2H])([2H])C([2H])([2H])C(=O)O [GABA, gamma-aminobutyric acid-d6]	3.4	relatively higher	relatively lower	3.1					
CC1(C)C(/C=C/C=C/C=C/C=C2\N(CCCCS(=O)(=O)O)c3ccc4ccccc4c3C2(C)C)=[N+](CCCCS(=O)(=O)[O-])c2ccc3ccccc3c21 [ICG, indocyanine green]					brightly lit	no signal was observed			
CC(=O)O[C@H]1C(=O)[C@@]2(C)[C@H]([C@H](OC(=O)c3ccccc3)[C@]3(O)C[C@H](OC(=O)[C@H](O)[C@@H](NC(=O)c4ccccc4)c4ccccc4)C(C)=C1C3(C)C)[C@]1(OC(C)=O)CO[C@@H]1C[C@@H]2O [PTX, paclitaxel]		relatively higher	relatively lower	294.1			796.55	below the limit of detection (LOD)	
Cc1nc2n(c(=O)c1CCN1CCC(c3noc4cc(F)ccc34)CC1)CCCC2 [RIS, risperidone]		relatively higher	relatively lower						
CCN(C)C(=O)Oc1cccc([C@H](C)N(C)C)c1.O=C(O)C(O)C(O)C(=O)O [RVG, rivastigmine i-tartrates]		relatively higher							
Cn1nnc2c(C(N)=O)ncn2c1=O [TMZ, temozolomide]	1.9	relatively higher	relatively lower	3.4					3.0
